# pEC50, pIC50: −log10 of the molar value. Counter-ions that a name gives are not always drawn.
# Assays:
# β2 [1] = target: T1, β2 (Rattus norvegicus, UniProt P10608); assay: Lung Binding (β2): binding assay with membranes from rat lung; settings: rat lung membranes, [^125 I]iodo-cyanopindolol, 1 hour
# T1 construct: membranes from rat lung; from tissue; host or cells: rat lung membranes
# Protocol: (§1) Selectivity of a compound is determined using the following procedures.
# (§2) Binding assays for β1 -effect are carried out by the use of membranes from rat heart, and β2 -effect by the use of membranes from rat lung by the method described in Neve, et. al., J. Pharmacol. Exp. Ther., 1985, 235, 657-664 with the following exceptions:
# (§3) 1. the incubation volume is 0.5 ml,
# (§4) 2. the incubation time is 1 hour,
# (§5) 3. the radioligand is [^125 I]iodo-cyanopindolol,
# (§6) 4. (--) - isoproterenol (50 μM) is used to define […], and
# (§7) 5. the filters are washed at 4° C.
# β2 [2] = assay: as above; settings: printed β3; Table 1 indicates β2 (lung binding)
# Protocol: as §1, §2, §3, §4, §5, §6, §7
# β3 -adrenergic receptor = target: T2, β3 -adrenergic receptor (Rattus norvegicus, UniProt P26255); assay: Lipolysis (β3-effect): stimulation of adipocyte lipolysis, glycerol release; type: cell-based; settings: rat epididymal adipocytes, 30 minutes, 37° C.; concentration giving 50% of the maximum rate of lipolysis of that compound
# T2 construct: Rat epididymal fat pads are excised and placed in 0.9% saline; from tissue; host or cells: rat epididymal fat pads, collagenase-isolated adipocytes
# Protocol: as §1
# The β3 -effect of the compounds is determined by their ability to stimulate adipocyte lipolysis. Rat epididymal fat pads are excised and placed in 0.9% saline. Four grams of tissue is transferred to a flask with 20 ml of aerated KrebsHenseleit bicarbonate (KHB) buffer containing 3% fatty acid-free bovine serum albumin to which 75 mg of crude bacterial collagenase (Worthington) has been added. The tissue is incubated for about 45 minutes at 37° C. with gentle shaking. The cells are then washed three times with two volumes of KHB buffer, filtered through two layers of gauze, and brought to a final volume of 80 ml with KHB buffer. One-ml-aliquots of the cell suspension is added to plastic test tubes containing the appropriate additions of vehicle or compound. The cells are gassed for 1 minute with 95% O2 -5% CO2, capped, and incubated at 37° C. with continuous shaking for a total of 30 minutes. The reaction is stopped by adding 0.1 ml of 30 % perchloric acid and 0.1 ml of chloroform. […] The amount of glycerol generated from the hydrolysis of endogenous triglycerides is determined in a coupled-enzyme spectrophotometric assay. […] The amount of NADH generated, which is proportional to the amount of glycerol, is determined by the increase in absorbance at 340 nm. […]
# β1 -adrenergic receptor [3] = target: T3, β1 -adrenergic receptor (Rattus norvegicus, UniProt P18090); assay: Heart Binding (β1): binding assay with membranes from rat heart; settings: rat heart membranes, [^125 I]iodo-cyanopindolol, 1 hour
# T3 construct: membranes from rat heart; from tissue; host or cells: rat heart membranes
# Protocol: as §1, §2, §3, §4, §5, §6, §7
# β1 -adrenergic receptor [4] = assay: as above; settings: β3 lipolysis vs β1 heart binding
# Protocol: as §1, §2, §3, §4, §5, §6, §7
# T2 sequence (P26255 whole entry): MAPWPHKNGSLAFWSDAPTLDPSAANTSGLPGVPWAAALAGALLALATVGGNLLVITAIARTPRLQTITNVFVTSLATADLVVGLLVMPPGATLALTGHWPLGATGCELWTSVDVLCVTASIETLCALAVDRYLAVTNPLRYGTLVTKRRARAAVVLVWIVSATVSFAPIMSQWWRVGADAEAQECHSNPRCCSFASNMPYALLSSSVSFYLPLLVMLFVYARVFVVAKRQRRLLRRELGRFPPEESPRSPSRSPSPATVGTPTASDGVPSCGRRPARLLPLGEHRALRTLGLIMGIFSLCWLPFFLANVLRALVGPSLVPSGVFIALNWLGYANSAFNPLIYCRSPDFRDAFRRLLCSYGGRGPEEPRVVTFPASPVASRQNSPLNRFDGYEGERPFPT
# T3 sequence (P18090 whole entry): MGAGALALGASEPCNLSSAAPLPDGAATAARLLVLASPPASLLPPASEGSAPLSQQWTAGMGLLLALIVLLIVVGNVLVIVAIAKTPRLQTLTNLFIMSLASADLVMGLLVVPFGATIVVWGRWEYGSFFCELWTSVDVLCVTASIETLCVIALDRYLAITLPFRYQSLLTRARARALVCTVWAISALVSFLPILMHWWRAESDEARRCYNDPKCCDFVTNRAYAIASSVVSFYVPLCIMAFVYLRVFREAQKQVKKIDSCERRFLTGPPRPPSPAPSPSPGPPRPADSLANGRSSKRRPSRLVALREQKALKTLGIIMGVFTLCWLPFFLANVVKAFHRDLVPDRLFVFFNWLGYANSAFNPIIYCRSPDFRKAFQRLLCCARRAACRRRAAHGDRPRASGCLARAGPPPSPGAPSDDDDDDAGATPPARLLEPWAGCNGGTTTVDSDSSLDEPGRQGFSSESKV
# T1 sequence (P10608 whole entry): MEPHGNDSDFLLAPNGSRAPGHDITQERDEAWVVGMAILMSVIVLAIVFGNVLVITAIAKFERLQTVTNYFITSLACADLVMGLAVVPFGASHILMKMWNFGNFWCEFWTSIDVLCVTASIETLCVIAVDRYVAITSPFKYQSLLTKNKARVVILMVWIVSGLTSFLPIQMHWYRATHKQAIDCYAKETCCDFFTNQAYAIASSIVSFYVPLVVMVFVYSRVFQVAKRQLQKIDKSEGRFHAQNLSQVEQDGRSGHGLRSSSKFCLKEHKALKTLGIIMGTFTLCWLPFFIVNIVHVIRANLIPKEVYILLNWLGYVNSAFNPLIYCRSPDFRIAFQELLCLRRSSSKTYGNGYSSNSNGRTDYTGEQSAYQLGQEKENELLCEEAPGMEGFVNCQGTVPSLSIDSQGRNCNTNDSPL
structure (smiles),measurement,setting,value
"C[C@H](Cc1ccc2c(c1)OC(C(=O)O)(C(=O)O)O2)NCC(O)COc1cccc2ccccc12 (mixture of isomers) [Example 1, (R,R) and (S,R)-5-[2-[[2-Hydroxy-3-(1-naphthalenyloxy)propyllamino]propyl-1,3-benzodioxole-2,2-dicarboxylic acid, disodium salt]",pIC50,β2 [1],6.44
same,selectivity when compared to the β3 -receptor,β2 [2],not selective
same,pEC50,β3 -adrenergic receptor,6.58
same,pIC50,β1 -adrenergic receptor [3],5.82
same,selectivity for the β3 -adrenergic receptor over the β1 -adrenergic receptor,β1 -adrenergic receptor [4],shows selectivity
